Test [1] has as its system human malaria parasites. Nature of the test: [3H]-hypoxanthine incorporation (de novo nucleic acid synthesis) in infected human red blood cells, Example 2. The class given is cell-based. As to conditions: for specific radioactivity incorporation, [^3H]-hypoxanthine: 25 hours, value at 0.1 μM set to 100%. The procedure: Human red blood cells infected at an infection rate of 2% with ring-stage human malaria parasites were cultured in RPMI1640 medium containing AlbuMAX-II at 37° C. and a hematocrit of 4%. 50 μL of a medium containing Alaremycin or any of the other compounds shown in Table 2 was mixed with 50 μL of the culture to the indicated concentrations, to which [^3H]-hypoxanthine was then added, followed by culture in a 96-well plate at 37° C. The repeat number was 2 for each concentration. After 25 hours, they were examined and the amount β-rays released from [^3H]-hypoxanthine incorporated into a nucleic acid with de novo nucleic acid synthesis was measured using a scintillation counter. The averages of the measured values were calculated, and the specific radioactivity incorporation was calculated by setting the measured value in the experiment for which each compound is contained at a final concentration of 0.1 μM, to 100%.

Test [2] relates to human malaria parasites. Nature of the test: [3H]-hypoxanthine incorporation (de novo nucleic acid synthesis) in infected human red blood cells, Example 1. The settings on record: for Specific Radioactivity Incorporation (%) [^3H]-Hypoxanthine: 25 hours, value at 0.01 μM set to 100%. The class given is cell-based. As to the method: (§1) Human red blood cells infected at an infection rate of 2% with ring-stage human malaria parasites were cultured in RPMI1640 medium containing AlbuMAX-II (Invitrogen) at 37° C. and a hematocrit of 4%. 50 μL of the culture was mixed with 50 μL of a medium containing Alaremycin to the concentrations shown in Table 1, to which [^3H]-hypoxanthine and [^14C]-isoleucine isoleucine were then added, followed by culture in a 96-well plate at 37° C. The repeat number was 2 for each concentration. After 25 hours, they were examined and the amount of (3-rays released from [^3H]-hypoxanthine incorporated into a nucleic acid with de novo nucleic acid synthesis or from [^14C]-isoleucine incorporated into a protein with de novo protein synthesis was measured using a scintillation counter. The averages of the measured values were calculated, and the specific radioactivity incorporation was calculated by setting the measured value in the experiment for which Alaremycin was contained at a final concentration of 0.01 μM, to 100%. The results are shown in Table 1.

The test system of test [3] is human malaria parasites. Kind of test: [14C]-isoleucine incorporation (de novo protein synthesis) in infected human red blood cells, Example 1. The class given is cell-based. As to conditions: 25 hours, value at 0.01 μM set to 100%. The procedure: as §1
The target of test [4] is porphobilinogen synthase (PBGS) (Pseudomonas aeruginosa, UniProt Q59643). The settings on record: Non-patent Document 3; cited from earlier work.
The next test concerns Escherichia coli. The settings on record: Non-patent Documents 2, 3; cited from earlier work.
The next test deals with Pseudomonas aeruginosa. As to conditions: Non-patent Document 3; cited from earlier work.

Bounds are passed on as bounds.

Results on four molecules are retold here after US20130217913A1, “Antimalarial Drug Comprising Alaremycin or Derivative Thereof as Active Ingredient” (SBI Pharmaceuticals Co., Ltd., priority 2010, published 2013).

porphobilinogen synthase (PBGS), sequence (Q59643 whole entry): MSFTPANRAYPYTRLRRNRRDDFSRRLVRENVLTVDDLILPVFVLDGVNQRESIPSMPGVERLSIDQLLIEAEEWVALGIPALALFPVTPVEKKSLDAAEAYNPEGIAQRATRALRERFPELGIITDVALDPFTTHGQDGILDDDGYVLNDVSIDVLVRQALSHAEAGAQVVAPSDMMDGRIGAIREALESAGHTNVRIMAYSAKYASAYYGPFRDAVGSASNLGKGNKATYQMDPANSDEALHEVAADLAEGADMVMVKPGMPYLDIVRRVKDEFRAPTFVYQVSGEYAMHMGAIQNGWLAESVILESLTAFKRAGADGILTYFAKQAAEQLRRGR

With `O=C(O)CCC(=O)CCC(=O)CCC(=O)O` [4,7-Dioxosebacic acid, 4,7-dioxosebacic acid], the “specific radioactivity incorporation, [^3H]-hypoxanthine” value in the test on human malaria parasites [1] (0.1 μM) amounted to 100%; in the test with human malaria parasites [1] (1 μM), 110.3%; in the test on human malaria parasites [1] (5 μM) it was 106.9%; in the test on human malaria parasites [1] (10 μM), 103.4%; in the test with human malaria parasites [1] (50 μM), 108%; in the test with human malaria parasites [1] (100 μM), 102.1%. Also, the “specific radioactivity incorporation, [^3H]-hypoxanthine” value is recorded as 106.8% in the test on human malaria parasites [1] (500 μM), 100.1% in the test on human malaria parasites [1] (1000 μM), 100% in the test with human malaria parasites [1] (5000 μM) and 97.1% with human malaria parasites [1] (10000 μM).

As for `NCC(=O)CCC(=O)O` [5-Aminolevulinic acid, 5-aminolevulinic acid], the “specific radioactivity incorporation, [^3H]-hypoxanthine” value worked out at 100% with human malaria parasites [1] (0.1 μM); 102.7% in the test with human malaria parasites [1] (1 μM); 108.5% with human malaria parasites [1] (5 μM); 104.4% in the test with human malaria parasites [1] (10 μM); 97.3% in the test with human malaria parasites [1] (50 μM); 101.2% in the test with human malaria parasites [1] (100 μM).

Take `C=C(NC(C)=O)C(=O)CCC(=O)O` [Alaremycin, 5-acetamido-4-oxo-5-hexenoic acid]: the “Specific Radioactivity Incorporation (%) [^3H]-Hypoxanthine” value in the test with human malaria parasites [2] (0.01 μM) is on record as 100%; in the test with human malaria parasites [2] (0.1 μM), 100.4%; in the test on human malaria parasites [2] (1 μM), 92.8%; with human malaria parasites [2] (5 μM), 84.8%; in the test with human malaria parasites [2] (10 μM), 66.8%; with human malaria parasites [2] (50 μM) it was 2.8%. The “Specific Radioactivity Incorporation (%) [^3H]-Hypoxanthine” value is on record as 1.5% with human malaria parasites [2] (100 μM) and 1.1% in the test with human malaria parasites [2] (200 μM). Further, in the test with human malaria parasites [2] (Homo sapiens, Erythrocyte, 15 μM, rough statement for both [^3H]-hypoxanthine and [^14C]-isoleucine, read-out: inhibition of radioactivity incorporation), the inhibition at 15 µM is around 50%. The inhibition at 50 µM in the test with human malaria parasites [2] (Homo sapiens, Erythrocyte, 50 μM, rough statement for both [^3H]-hypoxanthine and [^14C]-isoleucine, read-out: inhibition of radioactivity incorporation) was at least 95%. The “inhibition of nucleic acid metabolism and protein synthesis in human malaria parasites (in words)” value in the test on human malaria parasites [2] (measured as in Example 1, both nucleic acid and protein synthesis) is “inhibited by Alaremycin in a concentration-dependent manner”. Besides, the “Specific Radioactivity Incorporation (%) [^14C]-Isoleucine” value in the test with human malaria parasites [3] (0.01 μM) is 100%; in the test on human malaria parasites [3] (0.1 μM), 93.3%; in the test on human malaria parasites [3] (1 μM), 88.8%; in the test on human malaria parasites [3] (5 μM), 84.7%; in the test with human malaria parasites [3] (10 μM) it was 64.8%; in the test with human malaria parasites [3] (50 μM), 3.6%. Further, the “Specific Radioactivity Incorporation (%) [^14C]-Isoleucine” value is 2.1% with human malaria parasites [3] (100 μM) and 1% in the test on human malaria parasites [3] (200 μM). Moreover, the “specific radioactivity incorporation, [^3H]-hypoxanthine” value with human malaria parasites [1] (0.1 μM) came to 100%; in the test on human malaria parasites [1] (1 μM), 100.5%; in the test on human malaria parasites [1] (5 μM), 90.7%; in the test with human malaria parasites [1] (10 μM), 83.8%; in the test on human malaria parasites [1] (50 μM), 2.8%; with human malaria parasites [1] (100 μM) it was 1.6%. Also, in the test with human malaria parasites [1] (compared to succinylacetone and 4,7-dioxosebacic acid), the “inhibition of nucleic acid metabolism in human malaria parasites (in words)” value was “sufficiently inhibit nucleic acid metabolism in human malaria parasites in a significantly low concentration”. In test [4], the “inhibition of porphobilinogen synthase (in words)” value is on record as “act as an inhibitor of porphobilinogen synthase (PBGS)”. For the same molecule, the “antibacterial activity (in words)” value with Escherichia coli and with Pseudomonas aeruginosa was “has antibacterial activities” in each case.

On to `CC(=O)CC(=O)CCC(=O)O` [Succinylacetone, 4,6-dioxoheptanoic acid], for which the “specific radioactivity incorporation, [^3H]-hypoxanthine” value in the test with human malaria parasites [1] (0.1 μM) is 100%; in the test with human malaria parasites [1] (1 μM), 94.4%; in the test on human malaria parasites [1] (5 μM), 94.3%; with human malaria parasites [1] (10 μM), 94.7%; with human malaria parasites [1] (50 μM) it was 99.8%; in the test on human malaria parasites [1] (100 μM) it was 90.9%. Also, the “specific radioactivity incorporation, [^3H]-hypoxanthine” value with human malaria parasites [1] (500 μM) stood at 94.4%; in the test with human malaria parasites [1] (1000 μM), 88.6%; in the test on human malaria parasites [1] (5000 μM) it was 58.8%; with human malaria parasites [1] (10000 μM) it was 21.4%.
